In patent publication US10383948B2, “Anti-cMet antibody drug conjugates and methods for their use” (AbbVie Inc., priority 2016, dated 2019):

Assays:
NCI-H820 = test: Cytotoxicity assay (CellTiter-Glo, 6 days); assay type: cell-based, human; conditions: NCI-H820, without MET amplification; FIG. 4C
Protocol: (§1) Tumor cells were plated at 2000-5000 cells/well in 180 μL growth medium containing 10% FBS in 96-well plates, and cultured at 37° C. in a humidified incubator with 5% C02. The following day, titrations of antibodies or ADCs in 20 μL were added and cells were incubated for 6 days. Cell viability was determined using a CellTiter-Glo Luminescent Cell Viability Assay (Promega) according to the manufacturer's instructions.
as §1, with “of” for “of antibodies or”

Hs746T = test: Cytotoxicity assay (CellTiter-Glo, 6 days); assay type: cell-based, human; conditions: MET-amplified Hs746T gastric cancer cells; FIG. 4
Protocol: as §1, with “instructions. A non-binding, irrelevant negative control ADC conjugated to MMAE was also included in all assays to confirm that cell killing was antigen dependent.” for “instructions.”
as §1, with “of” for “of antibodies or”, “instructions. A non-binding, irrelevant negative control ADC conjugated to MMAE was also included in all assays to confirm that cell killing was antigen-dependent.” for “instructions.”

NCI-H441 = test: Cytotoxicity assay (CellTiter-Glo, 6 days); assay type: cell-based, human; conditions: NCI-H441, without MET amplification; FIG. 4D
Protocol: as §1, with “instructions. A non-binding, irrelevant negative control ADC conjugated to MMAE was also included in all assays to confirm that cell killing was antigen dependent.” for “instructions.”
as §1, with “of” for “of antibodies or”, “instructions. A non-binding, irrelevant negative control ADC conjugated to MMAE was also included in all assays to confirm that cell killing was antigen-dependent.” for “instructions.”

SNU-5 = test: Cytotoxicity assay (CellTiter-Glo, 6 days); assay type: cell-based, human; conditions: MET-amplified SNU-5 gastric cancer cells; FIG. 4
Protocol: as §1, with “instructions. A non-binding, irrelevant negative control ADC conjugated to MMAE was also included in all assays to confirm that cell killing was antigen dependent.” for “instructions.”

[1] = test system: Hs746T ABT-700R xenografts; test: ABT-700-refractory xenograft efficacy; assay type: in vivo, mice; conditions: Hs746T ABT-700R xenografts; FIG. 12B
[2] = test system: Hs746T gastric cancer xenografts; test: Hs746T xenograft efficacy; conditions: parental Hs746T xenografts, initial treatment; FIG. 12A
Protocol: Female SCID, SCID-Beige and nude mice were obtained from Charles River (Wilmington, Mass.) and housed at ten mice per cage. The body weight upon arrival was 20-22 g. Food and water were available ad libitum. Mice were acclimated to the animal facilities for a period of at least one week prior to commencement of experiments. Animals were tested in the light phase of a 12-hr light: 12-hr dark schedule (lights on at 06:00 hours).
Each experimental group included 8-10 animals.
Tumor volumes are depicted as mean±S.E.M.

[3] = patients; cited from earlier work

Row | Substance | inhibition of proliferation (NCI-H820) | inhibition of proliferation (Hs746T) | inhibition of proliferation (NCI-H441) | inhibition of proliferation (SNU-5) | tumor response [1] | tumor response [2] | dose not tolerated [3] [mg/kg] | dose tolerated [3] [mg/kg]
1 | ABT-700: humanized recombinant IgG1 kappa anti-cMet antibody, humanized version of mouse monoclonal antibody 224G11 | not cell lines without MET amplification | inhibited proliferation of cells with MET amplification | not cell lines without MET amplification | inhibited proliferation of cells with MET amplification | refractory to ABT-700 treatment with quick tumor outgrowth on therapy | tumor stasis followed by relapse | – | –
2 | DCDT2980S: an MMAE ADC targeting CD22 | – | – | – | – | – | – | 3.2 | 2.4
3 | brentuximab vedotin: Seattle Genetics MMAE ADC with an approximate DAR of 4 | – | – | – | – | – | – | 2.7 | –
